Data: ChEMBL document CHEMBL1137005 (Bioorg Med Chem Lett, 2009)
The source made the active and inactive calls. The calls are words filed in the database; no cut-off is given here.

Tests used:
[1] = tested on: Rattus norvegicus; experiment: Antihypertensive activity in spontaneously hypertensive rat assessed as change in systolic blood pressure at 300 mg/kg, po; format: functional, organism-based; parameters: dose 300 mg/kg; conditions: Artery
[2] = tested on: Rattus norvegicus; experiment: Antihypertensive activity in spontaneously hypertensive rat assessed as change in diastolic blood pressure at 300 mg/kg, po; format: functional, organism-based; parameters: dose 300 mg/kg; conditions: Artery
[3] = tested on: Rattus norvegicus; experiment: Antihypertensive activity in spontaneously hypertensive rat assessed as change in heart rate at 300 mg/kg, po; format: functional, organism-based; parameters: dose 300 mg/kg
[4] = tested on: Rattus norvegicus; experiment: Antihypertensive activity in spontaneously hypertensive rat assessed as change in pulse pressure at 300 mg/kg, po; format: functional, organism-based; parameters: dose 300 mg/kg
[5] = molecular target: T1, Epoxide hydrolase 1 (Homo sapiens, UniProt P07099); experiment: Inhibition of human microsomal epoxide hydrolase
T1 sequence (P07099 whole entry): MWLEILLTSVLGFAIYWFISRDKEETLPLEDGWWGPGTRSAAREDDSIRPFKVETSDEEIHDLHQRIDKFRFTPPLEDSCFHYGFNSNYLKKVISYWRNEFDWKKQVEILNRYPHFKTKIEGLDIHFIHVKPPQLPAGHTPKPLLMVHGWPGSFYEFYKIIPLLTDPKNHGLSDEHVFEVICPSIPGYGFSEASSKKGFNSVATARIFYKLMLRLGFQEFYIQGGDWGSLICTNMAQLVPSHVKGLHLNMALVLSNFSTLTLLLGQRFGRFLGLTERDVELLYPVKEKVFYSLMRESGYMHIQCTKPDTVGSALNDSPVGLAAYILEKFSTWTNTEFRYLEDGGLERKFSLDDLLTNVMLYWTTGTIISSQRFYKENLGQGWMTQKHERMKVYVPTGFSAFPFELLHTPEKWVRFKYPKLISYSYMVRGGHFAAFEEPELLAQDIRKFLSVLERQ

[6] = molecular target: T2, Bifunctional epoxide hydrolase 2 (Homo sapiens, UniProt P34913); experiment: Inhibition of human soluble epoxide hydrolase
T2 sequence (P34913 whole entry): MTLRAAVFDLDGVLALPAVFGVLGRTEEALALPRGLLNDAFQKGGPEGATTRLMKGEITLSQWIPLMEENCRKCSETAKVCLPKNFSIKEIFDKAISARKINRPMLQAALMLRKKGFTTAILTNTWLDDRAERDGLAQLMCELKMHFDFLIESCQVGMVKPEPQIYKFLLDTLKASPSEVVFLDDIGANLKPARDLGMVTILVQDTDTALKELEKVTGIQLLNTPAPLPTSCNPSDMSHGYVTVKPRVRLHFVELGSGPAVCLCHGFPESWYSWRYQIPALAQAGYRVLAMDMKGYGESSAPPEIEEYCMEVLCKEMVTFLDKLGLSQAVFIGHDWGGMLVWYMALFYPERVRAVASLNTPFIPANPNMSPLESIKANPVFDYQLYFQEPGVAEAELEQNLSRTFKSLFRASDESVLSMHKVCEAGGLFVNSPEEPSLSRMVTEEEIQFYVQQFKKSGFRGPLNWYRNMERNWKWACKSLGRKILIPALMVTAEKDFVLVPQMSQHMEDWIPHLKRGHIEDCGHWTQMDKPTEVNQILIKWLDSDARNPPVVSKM

[7] = molecular target: T3, Bifunctional epoxide hydrolase 2 (Rattus norvegicus, UniProt P80299); experiment: Inhibition of rat soluble epoxide hydrolase
T3 sequence (P80299 whole entry): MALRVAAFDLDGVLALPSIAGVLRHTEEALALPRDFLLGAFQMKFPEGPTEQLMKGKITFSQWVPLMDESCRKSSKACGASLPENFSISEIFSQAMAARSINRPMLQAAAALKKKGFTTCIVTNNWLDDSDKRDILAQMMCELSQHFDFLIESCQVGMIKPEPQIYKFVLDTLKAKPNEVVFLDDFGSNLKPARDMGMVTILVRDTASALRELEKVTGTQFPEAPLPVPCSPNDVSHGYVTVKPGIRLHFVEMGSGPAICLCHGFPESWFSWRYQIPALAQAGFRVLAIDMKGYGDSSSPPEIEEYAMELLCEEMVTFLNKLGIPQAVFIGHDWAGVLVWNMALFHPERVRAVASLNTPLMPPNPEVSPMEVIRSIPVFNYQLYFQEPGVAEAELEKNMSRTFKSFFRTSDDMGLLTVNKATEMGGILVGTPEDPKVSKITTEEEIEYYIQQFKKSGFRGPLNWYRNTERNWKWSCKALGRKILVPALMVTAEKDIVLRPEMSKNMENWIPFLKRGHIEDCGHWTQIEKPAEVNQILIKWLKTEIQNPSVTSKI

[8] = molecular target: T2, Bifunctional epoxide hydrolase 2; experiment: Inhibition of human soluble epoxide hydrolase in HEK293 cells assessed as DHET production; format: cell-based
[9] = molecular target: Cytochrome P450 2C9 (Homo sapiens, UniProt P11712); experiment: Inhibition of CYP2C9; format: ADME
[10] = molecular target: Cytochrome P450 2D6 (Homo sapiens, UniProt P10635); experiment: Inhibition of CYP2D6; format: ADME
[11] = molecular target: Cytochrome P450 3A4 (Homo sapiens, UniProt P08684); experiment: Inhibition of CYP3A4; format: ADME
[12] = Inhibition of potassium channel IKr
[13] = molecular target: Sodium channel protein type 5 subunit alpha (Homo sapiens, UniProt Q14524); experiment: Inhibition of Voltage-gated sodium channel subunit alpha Nav1.5
[14] = molecular target: Voltage-dependent L-type calcium channel subunit alpha-1C (Homo sapiens, UniProt Q13936); experiment: Activity at Cav 1.2 channel
[15] = Binding affinity to […] channel diltiazem binding site
[16] = Bioavailability in rat at 1 mg/kg, iv and 2 mg/kg, po; format: ADME, organism-based; conditions: in vivo
[17] = Clearance in rat at 1 mg/kg, iv and 2 mg/kg, po; format: ADME, organism-based; conditions: in vivo
[18] = Volume of distribution at steady state in rat at 1 mg/kg, iv and 2 mg/kg, po; format: ADME, organism-based; conditions: in vivo, read-out: Vdss
[19] = Half life in rat at 1 mg/kg, iv and 2 mg/kg, po; format: ADME, organism-based; conditions: in vivo
[20] = tested on: Blood; experiment: Inhibition of DHET production in rat whole blood at 1 uM after 1 hr; format: functional; parameters: Activity: scale not given: the % may be the effect or the level left
[21] = tested on: Rattus norvegicus; experiment: Plasma concentration in spontaneously hypertensive rat plasma at 50 mg/kg, po; format: ADME, organism-based; parameters: dose 50 mg/kg, route oral; conditions: in vivo
[22] = tested on: Rattus norvegicus; experiment: Ex vivo inhibition of DHET production in spontaneously hypertensive rat plasma at 50 mg/kg, po after 0.5 to 6 hrs; format: functional
[23] = Plasma concentration in spontaneously hypertensive rat plasma at 300 mg/kg, after 2 hrs; format: ADME, organism-based; parameters: dose 300 mg/kg
[24] = Plasma concentration in spontaneously hypertensive rat plasma at 300 mg/kg, after 5 hrs; format: ADME, organism-based; parameters: dose 300 mg/kg
[25] = Plasma concentration in spontaneously hypertensive rat plasma at 300 mg/kg, after 24 hrs; format: ADME, organism-based; parameters: dose 300 mg/kg

Sequence of Voltage-dependent L-type calcium channel subunit alpha-1C (Q13936 whole entry): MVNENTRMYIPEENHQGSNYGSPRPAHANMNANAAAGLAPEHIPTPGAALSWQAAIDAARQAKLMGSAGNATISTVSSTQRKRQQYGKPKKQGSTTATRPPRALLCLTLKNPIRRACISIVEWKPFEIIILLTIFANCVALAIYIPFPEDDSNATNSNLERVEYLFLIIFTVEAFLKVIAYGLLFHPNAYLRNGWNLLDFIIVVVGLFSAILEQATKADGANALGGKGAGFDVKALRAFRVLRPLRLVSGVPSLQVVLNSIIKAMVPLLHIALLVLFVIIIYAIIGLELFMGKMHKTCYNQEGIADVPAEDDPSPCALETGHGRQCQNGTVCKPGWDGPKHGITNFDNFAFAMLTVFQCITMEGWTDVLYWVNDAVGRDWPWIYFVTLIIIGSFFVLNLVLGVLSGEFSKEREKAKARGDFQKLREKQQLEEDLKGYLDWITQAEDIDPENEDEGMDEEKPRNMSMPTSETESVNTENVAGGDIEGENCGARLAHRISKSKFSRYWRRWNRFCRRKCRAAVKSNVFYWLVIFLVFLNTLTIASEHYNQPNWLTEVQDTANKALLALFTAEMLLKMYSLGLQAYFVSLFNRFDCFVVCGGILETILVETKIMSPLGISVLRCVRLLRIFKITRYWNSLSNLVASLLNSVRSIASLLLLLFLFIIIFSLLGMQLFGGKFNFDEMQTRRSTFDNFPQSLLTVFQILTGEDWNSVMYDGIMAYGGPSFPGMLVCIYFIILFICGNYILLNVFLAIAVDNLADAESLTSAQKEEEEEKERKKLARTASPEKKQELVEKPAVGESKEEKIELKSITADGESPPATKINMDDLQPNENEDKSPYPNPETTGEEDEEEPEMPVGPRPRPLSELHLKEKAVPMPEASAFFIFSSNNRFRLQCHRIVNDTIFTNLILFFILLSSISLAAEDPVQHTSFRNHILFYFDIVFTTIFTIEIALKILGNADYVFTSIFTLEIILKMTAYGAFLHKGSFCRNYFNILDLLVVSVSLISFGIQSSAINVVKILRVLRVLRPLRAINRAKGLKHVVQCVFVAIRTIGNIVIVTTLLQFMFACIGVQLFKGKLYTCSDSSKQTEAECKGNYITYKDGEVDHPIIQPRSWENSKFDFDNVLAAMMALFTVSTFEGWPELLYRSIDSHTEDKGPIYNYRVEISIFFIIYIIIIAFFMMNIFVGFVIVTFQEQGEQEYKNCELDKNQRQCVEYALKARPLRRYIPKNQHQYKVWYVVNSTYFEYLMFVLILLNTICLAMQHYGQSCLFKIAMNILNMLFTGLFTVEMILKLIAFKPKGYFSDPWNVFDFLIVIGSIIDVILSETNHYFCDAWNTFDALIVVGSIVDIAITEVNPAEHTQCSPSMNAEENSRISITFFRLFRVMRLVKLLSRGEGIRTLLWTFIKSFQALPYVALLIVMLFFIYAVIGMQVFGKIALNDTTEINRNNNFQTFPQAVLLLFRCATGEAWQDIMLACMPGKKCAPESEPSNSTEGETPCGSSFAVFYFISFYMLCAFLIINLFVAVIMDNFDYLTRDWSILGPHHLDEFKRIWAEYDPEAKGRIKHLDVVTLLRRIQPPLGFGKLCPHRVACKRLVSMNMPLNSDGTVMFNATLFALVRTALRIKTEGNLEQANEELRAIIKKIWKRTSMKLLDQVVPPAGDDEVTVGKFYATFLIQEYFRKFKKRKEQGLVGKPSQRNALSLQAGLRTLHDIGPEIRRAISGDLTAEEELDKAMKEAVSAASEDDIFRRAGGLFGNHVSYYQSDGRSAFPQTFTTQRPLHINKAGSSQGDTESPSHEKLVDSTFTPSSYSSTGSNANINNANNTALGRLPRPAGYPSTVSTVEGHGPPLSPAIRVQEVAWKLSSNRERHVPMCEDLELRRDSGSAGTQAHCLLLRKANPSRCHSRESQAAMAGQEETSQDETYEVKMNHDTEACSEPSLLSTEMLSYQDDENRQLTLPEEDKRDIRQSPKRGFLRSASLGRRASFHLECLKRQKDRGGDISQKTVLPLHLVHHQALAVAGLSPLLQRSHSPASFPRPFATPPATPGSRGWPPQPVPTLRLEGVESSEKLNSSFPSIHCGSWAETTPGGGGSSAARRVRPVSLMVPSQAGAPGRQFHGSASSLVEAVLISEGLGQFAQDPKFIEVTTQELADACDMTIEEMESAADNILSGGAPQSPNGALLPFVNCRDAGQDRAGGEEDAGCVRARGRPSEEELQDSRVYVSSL
Sequence of Cytochrome P450 3A4 (P08684 whole entry): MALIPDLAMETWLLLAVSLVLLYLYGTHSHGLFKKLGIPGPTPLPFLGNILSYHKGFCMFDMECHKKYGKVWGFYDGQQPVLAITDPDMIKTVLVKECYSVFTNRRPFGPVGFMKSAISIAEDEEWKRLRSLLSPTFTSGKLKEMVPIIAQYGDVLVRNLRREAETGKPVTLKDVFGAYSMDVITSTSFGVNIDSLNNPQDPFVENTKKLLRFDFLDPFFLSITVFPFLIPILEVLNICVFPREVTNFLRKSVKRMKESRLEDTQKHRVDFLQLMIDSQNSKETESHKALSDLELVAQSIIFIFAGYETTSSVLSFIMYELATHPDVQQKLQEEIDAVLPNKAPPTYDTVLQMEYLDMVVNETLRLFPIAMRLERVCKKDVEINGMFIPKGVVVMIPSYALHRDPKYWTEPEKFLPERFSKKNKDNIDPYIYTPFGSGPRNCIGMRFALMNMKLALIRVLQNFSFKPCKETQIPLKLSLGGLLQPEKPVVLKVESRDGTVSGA
Sequence of Sodium channel protein type 5 subunit alpha (Q14524 whole entry): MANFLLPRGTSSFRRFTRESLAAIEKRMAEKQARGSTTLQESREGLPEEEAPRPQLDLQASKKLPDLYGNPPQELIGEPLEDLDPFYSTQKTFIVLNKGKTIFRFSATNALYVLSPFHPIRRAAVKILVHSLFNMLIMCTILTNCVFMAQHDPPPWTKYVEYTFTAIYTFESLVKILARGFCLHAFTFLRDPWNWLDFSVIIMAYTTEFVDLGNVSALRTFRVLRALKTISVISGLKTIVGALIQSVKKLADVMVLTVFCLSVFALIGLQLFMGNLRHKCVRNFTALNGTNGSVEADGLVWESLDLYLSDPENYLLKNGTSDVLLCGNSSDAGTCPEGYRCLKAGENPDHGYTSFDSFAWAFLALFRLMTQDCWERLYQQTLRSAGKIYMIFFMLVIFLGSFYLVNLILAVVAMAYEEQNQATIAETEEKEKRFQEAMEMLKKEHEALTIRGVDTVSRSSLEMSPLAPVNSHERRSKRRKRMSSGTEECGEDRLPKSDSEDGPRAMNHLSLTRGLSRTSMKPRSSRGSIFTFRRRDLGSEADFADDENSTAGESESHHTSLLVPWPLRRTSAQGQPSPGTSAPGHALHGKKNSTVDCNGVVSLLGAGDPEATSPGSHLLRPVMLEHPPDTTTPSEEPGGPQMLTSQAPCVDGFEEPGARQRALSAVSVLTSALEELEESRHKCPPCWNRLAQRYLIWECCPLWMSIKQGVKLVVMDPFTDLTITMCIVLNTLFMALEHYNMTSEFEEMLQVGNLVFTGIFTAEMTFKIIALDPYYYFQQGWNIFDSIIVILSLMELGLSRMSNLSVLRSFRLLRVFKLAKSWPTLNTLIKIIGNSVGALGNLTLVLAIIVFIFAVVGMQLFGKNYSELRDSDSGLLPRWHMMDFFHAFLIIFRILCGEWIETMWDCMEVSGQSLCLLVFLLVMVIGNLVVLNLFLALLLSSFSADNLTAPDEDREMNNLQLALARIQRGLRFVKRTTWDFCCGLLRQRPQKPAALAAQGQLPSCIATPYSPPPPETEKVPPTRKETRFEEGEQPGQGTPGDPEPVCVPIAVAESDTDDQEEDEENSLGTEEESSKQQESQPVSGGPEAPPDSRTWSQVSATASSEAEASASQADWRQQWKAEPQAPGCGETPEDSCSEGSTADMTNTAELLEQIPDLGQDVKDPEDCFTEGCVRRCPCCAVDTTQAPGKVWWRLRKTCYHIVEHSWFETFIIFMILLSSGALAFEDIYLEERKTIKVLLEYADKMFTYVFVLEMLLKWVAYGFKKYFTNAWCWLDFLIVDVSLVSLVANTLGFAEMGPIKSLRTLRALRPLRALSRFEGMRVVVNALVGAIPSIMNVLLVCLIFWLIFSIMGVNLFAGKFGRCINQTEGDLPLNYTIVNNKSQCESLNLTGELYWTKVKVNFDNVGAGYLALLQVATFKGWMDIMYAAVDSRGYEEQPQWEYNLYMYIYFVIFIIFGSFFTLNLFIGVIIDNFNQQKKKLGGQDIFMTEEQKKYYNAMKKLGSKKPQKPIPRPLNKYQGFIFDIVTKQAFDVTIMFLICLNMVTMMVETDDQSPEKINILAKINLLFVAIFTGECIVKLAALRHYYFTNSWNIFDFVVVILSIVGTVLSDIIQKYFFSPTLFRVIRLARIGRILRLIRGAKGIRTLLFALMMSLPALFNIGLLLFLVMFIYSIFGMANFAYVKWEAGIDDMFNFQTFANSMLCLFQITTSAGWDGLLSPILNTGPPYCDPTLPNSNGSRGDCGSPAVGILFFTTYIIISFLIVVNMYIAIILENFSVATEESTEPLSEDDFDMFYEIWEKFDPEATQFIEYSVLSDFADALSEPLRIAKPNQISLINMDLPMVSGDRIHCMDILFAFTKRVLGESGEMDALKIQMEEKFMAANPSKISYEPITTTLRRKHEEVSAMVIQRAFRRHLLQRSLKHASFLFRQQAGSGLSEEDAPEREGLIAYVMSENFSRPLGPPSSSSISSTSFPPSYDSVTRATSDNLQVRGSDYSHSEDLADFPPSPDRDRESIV

| Compound | IC50 [5] | IC50 [6] | IC50 [7] | IC50 [8] | IC50 [9] | IC50 [10] | IC50 [11] | IC50 [15] | bioavailability [16] | clearance [17] | Vd [18] | half-life [19] | IC50 [12] | IC50 [13] | IC50 [14] | Activity [20] | further results |
| --- | --- | --- | --- | --- | --- | --- | --- | --- | --- | --- | --- | --- | --- | --- | --- | --- | --- |
| O=C1CC2(CCN(C(=O)N[C@H]3C[C@@H]3c3ccccc3)CC2)Oc2ccccc21 (racemic) [listing 1 of 2 here] |  |  |  |  |  |  |  |  |  |  |  |  |  |  |  |  | Activity [1]: inactive; Activity [2]: inactive; Activity [3]: inactive; Activity [4]: inactive |
| O=C(N[C@H]1C[C@@H]1c1ccccc1)N1CCC2(CCc3ncccc3O2)CC1 (relative stereo) | > 100 µM | 0.005 µM | 0.021 µM | < 0.001 µM | > 10 µM | > 10 µM | > 10 µM |  |  |  |  |  | > 30 µM | > 10 µM | 20 µM | 9.2% |  |
| O=C(c1ccc(C(F)(F)F)cc1)N1CCC2(CCc3ccccc3O2)CC1 | 22 µM | 0.004 µM | 0.01 µM | < 0.001 µM | > 10 µM | > 10 µM | > 10 µM | 2 µM |  |  |  |  | 1 µM | > 10 µM |  | 48% |  |
| O=C1CC2(CCN(C(=O)N[C@H]3C[C@@H]3c3ccccc3)CC2)Oc2ccccc21 (racemic) [listing 2 of 2 here] |  |  |  |  |  |  |  |  | 61% | 47 mL/min/kg | 3.1 L/kg | 1.5 h |  |  |  | 8.6% | concentration [21]: 800 nM; inhibition in vivo at 50 mg/kg [22]: > 95%; concentration at 2 h [23]: 3600 nM; concentration at 5 h [24]: 2700 nM; concentration at 24 h [25]: 1700 nM |
| O=C1CC2(CCN(C(=O)N[C@H]3C[C@@H]3c3ccccc3)CC2)Oc2cccnc21 (relative stereo) | > 100 µM | 0.008 µM | 0.02 µM | 0.004 µM |  | > 10 µM | > 10 µM |  |  |  |  |  | > 30 µM | > 10 µM | > 30 µM | 12% |  |
| CS(=O)(=O)c1ccc2c(c1)CCC1(CCN(C(=O)c3ccc(C(F)(F)F)cc3)CC1)O2 | > 100 µM | 0.002 µM | 0.019 µM | < 0.001 µM | 7.6 µM | > 10 µM | > 10 µM | > 30 µM | 61% | 0.9 mL/min/kg | 1.6 L/kg | 18 h | 25 µM | > 10 µM |  | 66% |  |

The next lines start with results.

| IC50 [5] | IC50 [6] | IC50 [7] | IC50 [8] | IC50 [9] | IC50 [10] | IC50 [11] | IC50 [15] | bioavailability [16] | clearance [17] | Vd [18] | half-life [19] | Compound | IC50 [12] | IC50 [13] | IC50 [14] | Activity [20] | further results |
| --- | --- | --- | --- | --- | --- | --- | --- | --- | --- | --- | --- | --- | --- | --- | --- | --- | --- |
| 15 µM | 0.004 µM | 0.021 µM | < 0.001 µM | > 10 µM | > 10 µM | > 10 µM |  |  |  |  |  | Cn1nccc1-c1ccc2c(c1)C(=O)CC1(CCN(C(=O)N[C@H]3C[C@@H]3c3ccccc3)CC1)O2 (racemic) | 4 µM | > 10 µM | 28 µM |  |  |
|  | 0.004 µM | 0.012 µM |  | > 10 µM | > 10 µM | > 10 µM | > 26 µM | 49% | 1 mL/min/kg | 0.2 L/kg | 2.6 h | CS(=O)(=O)c1ccc2c(c1)C(=O)CC1(CCN(C(=O)N[C@H]3C[C@@H]3c3ccccc3)CC1)O2 (racemic) | 4 µM | > 10 µM |  |  |  |
| 55 µM | 0.011 µM | 0.049 µM | 0.003 µM | > 10 µM | > 10 µM | > 10 µM |  |  |  |  |  | CS(=O)(=O)c1ccc2c(c1)CCC1(CCCN(C(=O)N[C@H]3C[C@@H]3c3ccccc3)CC1)O2 (relative stereo) | 2 µM | > 10 µM | > 30 µM |  |  |
| > 100 µM | 0.003 µM | 0.013 µM | < 0.001 µM | 10 µM | > 10 µM | > 10 µM |  |  |  |  |  | Cn1nccc1Nc1ccc2c(c1)C(=O)CC1(CCN(C(=O)N[C@H]3C[C@@H]3c3ccccc3)CC1)O2 (racemic) | 2 µM | > 10 µM | 26 µM |  |  |
|  |  | 0.004 µM |  |  |  |  | > 30 µM | 67% | 0.7 mL/min/kg | 0.15 L/kg | 2.6 h | CS(=O)(=O)c1ccc2c(c1)CCC1(CCN(C(=O)Cc3ccc(Cl)cc3Cl)CC1)O2 | 0.8 µM |  |  |  |  |
|  |  |  |  |  |  |  |  | 86% | 0.7 mL/min/kg | 0.23 L/kg | 3.9 h | CS(=O)(=O)c1ccc2c(c1)CCC1(CCN(C(=O)N[C@H]3C[C@@H]3c3ccccc3)CC1)O2.Cl (racemic) |  |  |  |  | inhibition at 1 µM ([20]; Rattus norvegicus, Blood, 1 h): 32% |
